Data set [1] is described as follows: Optical absorption spectra. The class given is physicochemical.
The target in a further data set is apoglucose oxidase (Aspergillus niger, UniProt P13006). Put plainly: Activation of apoglucose oxidase by FAD-labeled conjugate (ANS comparison). The data set is classed as biochemical. How it is done: For the purposes of comparison, a series of apoenzyme reactivation measurements were set up with different concentrations of the conventionally used blocking agent ANS. The following reagents were prepared:
0.105M potassium phosphate buffer, pH 7.0
1.1% (w:v) bovine serum albumin
5.26 nM FAD-labeled conjugate, supra
4 μM apoglucose oxidase, supra
50 mM phosphate buffer, pH 7.0
Apoenzyme activity was determined by placing 50 μl of Reagent B in a cuvette and starting the reaction by addition of 1.90 ml of Reagent A. The assay reactions were incubated for 10 minutes at room temperature and the absorbances at 520 nm recorded.

Data set [2] relates to anti(thyroxine) antiserum / apoglucose oxidase. Put plainly: Apoenzyme reactivation immunoassay system for serum thyroxine. The data set is classed as biochemical. Particulars: 2 mM sodium salt of dissociating agent in buffer. The procedure: Standard curves for serum thyroxine were generated using a semiautomated assay protocol on the Gilford Clinical Chemistry Analyzer System 203-S (Gilford Instrument Laboratories, Oberline, OH, USA). […] The FAD-thyroxine conjugate (40 nM in 0.1M sodium phosphate, pH 7.0, 0.01% Triton X-100) as a 0.05 ml aliquot was added to the reaction cup and allowed to equilibrate for 30 seconds. The reaction was initiated by addition of 0.10 ml 1.0 μM apoglucose oxidase, 2 mM 4-aminoantipyrine, 12% glycerol, 80 mM sodium phosphate, pH 7.0. The absorbance at 520 nm was recorded after an 8 minute incubation.

The subject of data set [3] is serum proteins (thyroxine binding protein, TBP). Description: Effect of pH on the dissociation of iodothyronine from serum proteins. Details: species or system human. To be noted: over the range pH 6.0-8.0; 2.0 mM. How it is done:
Radioactive iodine labeled thyroxine (^125 I-thyroxine obtained from Amersham-Searle, Arlington Heights, IL, USA) was equilibrated with 5 ml of normal human serum for 48 hours at 4° C. […] After 5 minutes of incubation at room temperature, a 165 μl aliquot was applied to a Sephadex® column from a Seralute® thyroxine assay kit (Miles Laboratories, Inc., Ames Division, Elkhart, IN, USA), which had been equilibrated with 0.1M sodium phosphate, pH 7.0. The total radioactivity applied to the columns was measured and the undissociated material was washed through the column with 3 ml of buffer. The columns were counted to determine the percentage of thyroxine dissociated from the serum proteins.
Using the column procedure described in the second study in Example 1, the pH of the 0.1M sodium phosphate was varied and the concentration of the dissociating agent held constant at 2.0 mM. The columns were equilibrated with buffer containing the dissociating agent at the given pH and 165 μl of the serum diluted in buffer at the given pH (as described above) was applied to the column. The total counts were measured and then the columns were washed with buffer at the given pH. The counts remaining on the column represent the percentage of iodothyronine dissociated.

Where [4] appears, read: 50 μM solution in 0.1M phosphate buffer, pH 7.0.

The values below come from patent US4468469A, “Substituted phenylacetic acids and salts as TBP blocking agents in iodothyronine immunoassays” (Miles Laboratories, Inc., priority 1982, dated 1984).

Chain of apoglucose oxidase (P13006 17-605): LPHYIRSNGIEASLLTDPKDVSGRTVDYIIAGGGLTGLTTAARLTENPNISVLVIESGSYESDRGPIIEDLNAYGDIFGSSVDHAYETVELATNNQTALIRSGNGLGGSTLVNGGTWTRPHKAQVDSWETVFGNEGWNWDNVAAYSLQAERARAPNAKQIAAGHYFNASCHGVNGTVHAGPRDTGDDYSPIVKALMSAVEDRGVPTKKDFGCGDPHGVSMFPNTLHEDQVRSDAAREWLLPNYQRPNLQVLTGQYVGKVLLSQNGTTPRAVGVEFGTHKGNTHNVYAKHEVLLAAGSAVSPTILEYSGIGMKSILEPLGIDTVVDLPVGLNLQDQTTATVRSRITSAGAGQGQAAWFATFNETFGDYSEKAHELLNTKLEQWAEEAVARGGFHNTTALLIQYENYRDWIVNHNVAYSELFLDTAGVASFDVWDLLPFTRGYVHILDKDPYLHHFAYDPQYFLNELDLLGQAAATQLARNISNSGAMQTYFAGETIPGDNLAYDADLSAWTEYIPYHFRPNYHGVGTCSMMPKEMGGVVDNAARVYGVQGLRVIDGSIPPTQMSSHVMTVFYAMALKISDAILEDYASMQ

With `O=S(=O)(O)c1cccc2cccc(Nc3ccccc3)c12` [ANS, 8-anilino-1-naphthalenesulfonic acid], in data set [1] (setting [4]), the broad absorption band is recorded as 300-400 nm and the “wavelength of absorption peak” value is “about 350 nm”. In addition, the absorption peak height in data set [1] (50 μM solution in 0.1M phosphate buffer, pH 7.0, at about 350 nm) was 0.5. The activity at 100 µM at apoglucose oxidase (10 min, pH 7, 0.1 mM ANS in Reagent A, room temperature, read-out: Percent Apoglucose Oxidase Activity) amounted to 64%. Besides, the activity at 200 µM on apoglucose oxidase (10 min, pH 7, 0.2 mM ANS in Reagent A, room temperature, read-out: Percent Apoglucose Oxidase Activity) came out at 46%. The activity at 500 µM on apoglucose oxidase (10 min, pH 7, 0.5 mM ANS in Reagent A, room temperature, read-out: Percent Apoglucose Oxidase Activity) worked out at 13%. Besides, the activity at 1000 µM on apoglucose oxidase (10 min, pH 7, 1.0 mM ANS in Reagent A, room temperature, read-out: Percent Apoglucose Oxidase Activity) was determined as 0%. For the same compound, on apoglucose oxidase (ANS concentrations above about 1.0 mM), the “effect on the recombination reaction of apoglucose oxidase and FAD-labeled conjugate” value is “totally inhibit”.
Turning to `O=C(O)Cc1ccccc1Nc1c(Cl)cccc1Cl` [Diclofenac, 2-(2,6-dichlorophenylamino)phenylacetic acid], the λmax in data set [1] (in 0.1M sodium hydroxide) turned out to be 275 nanometers. Moreover, the λmin in data set [1] (in 0.1M sodium hydroxide) is 248 nanometers. In addition, the “ε min (NaOH), extinction coefficient” value in data set [1] (in 0.1M sodium hydroxide, at λmin) came out at 6400 M⁻¹ cm⁻¹. In addition, the “Absorbance (520 nm)” value came to 0.619 in data set [2] (Thyroxine Standard 0 μg/L); 0.620 in data set [2] (Thyroxine Standard 25 μg/L); 0.647 in data set [2] (Thyroxine Standard 75 μg/L); 0.678 in data set [2] (Thyroxine Standard 125 μg/L); 0.719 in data set [2] (Thyroxine Standard 200 μg/L). For the same compound, the “pH dependence of the dissociation of iodothyronine from serum proteins” value in data set [3] is listed as “independent of pH”.
